Data: ChEMBL document CHEMBL1641372 (Bioorg Med Chem Lett, 2011)

Key:
[1] = target: T1, 5-hydroxytryptamine receptor 3A (Homo sapiens, UniProt P46098); experiment: Binding affinity to human 5HT3A receptor; assay type: single protein
T1 sequence (P46098 whole entry): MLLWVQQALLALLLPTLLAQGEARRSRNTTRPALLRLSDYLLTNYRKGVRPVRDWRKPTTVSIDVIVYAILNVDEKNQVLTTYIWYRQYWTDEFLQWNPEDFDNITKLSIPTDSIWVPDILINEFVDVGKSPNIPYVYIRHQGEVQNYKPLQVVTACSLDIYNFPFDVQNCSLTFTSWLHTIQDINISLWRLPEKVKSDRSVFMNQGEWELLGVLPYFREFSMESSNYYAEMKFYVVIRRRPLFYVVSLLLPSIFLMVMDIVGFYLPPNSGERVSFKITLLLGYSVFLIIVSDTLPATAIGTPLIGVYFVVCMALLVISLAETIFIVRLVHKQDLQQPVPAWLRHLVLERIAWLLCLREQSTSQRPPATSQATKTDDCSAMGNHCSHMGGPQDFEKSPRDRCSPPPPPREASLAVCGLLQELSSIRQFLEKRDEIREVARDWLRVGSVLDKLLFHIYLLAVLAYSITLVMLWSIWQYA

[2] = test system: Mus musculus; experiment: Partial agonist activity at 5HT3 receptor in po dosed mouse assessed inhibition of serotonin-induced bradycardia administered 1 hr before serotonin challenge by von Bezold-Jarisch reflex test; assay type: functional
[3] = target: 5-hydroxytryptamine receptor 4 (Homo sapiens) (UniProt Q13639); experiment: Inhibition of 5HT4 receptor at 1 uM
[4] = Intrinsic clearance in human liver microsomes assessed per mg of protein; assay type: ADME, Microsome
[5] = target: Cytochrome P450 3A4 (Homo sapiens, UniProt P08684); experiment: Inhibition of human CYP3A4; assay type: ADME
[6] = Inhibition of human CYP450; assay type: ADME
[7] = target: T2, 5-hydroxytryptamine receptor 1A (Homo sapiens) (UniProt P08908); experiment: Inhibition of 5HT1A receptor at 1 uM
T2 sequence (whole entry): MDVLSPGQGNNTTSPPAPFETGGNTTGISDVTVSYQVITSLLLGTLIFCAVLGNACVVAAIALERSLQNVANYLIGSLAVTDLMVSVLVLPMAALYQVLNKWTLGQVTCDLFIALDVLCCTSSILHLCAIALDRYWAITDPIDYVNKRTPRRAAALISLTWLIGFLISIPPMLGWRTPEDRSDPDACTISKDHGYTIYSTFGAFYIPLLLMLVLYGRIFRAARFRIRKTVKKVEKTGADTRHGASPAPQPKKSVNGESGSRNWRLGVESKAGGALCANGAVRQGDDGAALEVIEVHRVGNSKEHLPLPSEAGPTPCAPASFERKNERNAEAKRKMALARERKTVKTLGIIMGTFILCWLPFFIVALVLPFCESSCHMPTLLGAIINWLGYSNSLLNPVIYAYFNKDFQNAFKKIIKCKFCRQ

[8] = target: T1, 5-hydroxytryptamine receptor 3A; experiment: Partial agonist activity at human 5HT3A receptor expressed in HEK293 cells assessed as effect on serotonin-induced response; assay type: functional, cell-based
[9] = target: T1, 5-hydroxytryptamine receptor 3A; experiment: Partial agonist activity at human 5HT3A receptor expressed in HEK293 cells assessed as decrease in 10 uM 5-chloroindole-induced increase in intracellular calcium release; assay type: functional, cell-based
[10] = Solubility of the compound at pH 7.4 phosphate buffered saline; assay type: physicochemical

Cytochrome P450 3A4, sequence (P08684 whole entry): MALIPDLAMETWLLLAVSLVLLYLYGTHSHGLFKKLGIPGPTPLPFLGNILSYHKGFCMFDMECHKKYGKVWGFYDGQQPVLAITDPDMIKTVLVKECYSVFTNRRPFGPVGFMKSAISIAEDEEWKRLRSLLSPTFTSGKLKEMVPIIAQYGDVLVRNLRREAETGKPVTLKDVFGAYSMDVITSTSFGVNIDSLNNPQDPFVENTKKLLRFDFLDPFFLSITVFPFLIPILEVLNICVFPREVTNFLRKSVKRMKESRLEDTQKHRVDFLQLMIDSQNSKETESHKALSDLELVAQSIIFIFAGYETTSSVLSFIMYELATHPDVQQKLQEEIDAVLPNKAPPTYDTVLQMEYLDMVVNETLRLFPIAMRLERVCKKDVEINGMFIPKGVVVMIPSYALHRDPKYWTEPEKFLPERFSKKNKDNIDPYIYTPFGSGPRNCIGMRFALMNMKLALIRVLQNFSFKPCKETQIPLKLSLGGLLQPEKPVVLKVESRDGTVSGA
5-hydroxytryptamine receptor 4 (Homo sapiens), sequence (Q13639 whole entry): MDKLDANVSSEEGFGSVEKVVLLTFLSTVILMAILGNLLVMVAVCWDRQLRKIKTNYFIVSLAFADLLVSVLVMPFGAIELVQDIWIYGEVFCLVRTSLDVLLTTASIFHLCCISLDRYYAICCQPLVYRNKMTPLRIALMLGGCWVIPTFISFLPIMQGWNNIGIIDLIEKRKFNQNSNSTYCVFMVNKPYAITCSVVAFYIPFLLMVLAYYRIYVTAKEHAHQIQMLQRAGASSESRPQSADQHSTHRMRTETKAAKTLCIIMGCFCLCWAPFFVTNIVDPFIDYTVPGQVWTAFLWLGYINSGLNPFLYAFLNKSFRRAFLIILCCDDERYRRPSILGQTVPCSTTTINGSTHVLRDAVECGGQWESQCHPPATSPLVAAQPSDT

CCn1nc2c3c(cccc31)C(=O)N([C@@H]1CN3CCC1CC3)C2
Ki [1]: 1.6 nM

Cc1[nH]cnc1CN1CCc2c(c3ccccc3n2C)C1=O [ALOSETRON]
ED50 [2]: 0.02 mg/kg

CC(C)Cn1nc2c3c(cccc31)C(=O)N([C@@H]1CN3CCC1CC3)C2
Ki [1]: 2.4 nM

O=C1c2cccc3[nH]nc(c23)CN1[C@H]1CN2CCC1CC2
inhibition [3]: > 50% | microsomal CLint [4]: 7.3 µL/min/mg | IC50 [5]: < 10000 nM | IC50 [6]: > 50000 nM | inhibition [7]: > 50% | ED50 [2]: 0.64 mg/kg

O=C1c2cccc3[nH]nc(c23)CN1[C@@H]1CN2CCC1CC2
inhibition [3]: > 50% | inhibition [7]: > 50%

Cn1cc2c3c(cccc31)C(=O)N([C@@H]1CN3CCC1CC3)C2
Ki [1]: 0.7 nM

Cn1nc2c3c(cc(F)cc31)C(=O)N([C@H]1CN3CCC1CC3)C2
Ki [1]: 2 nM

Cn1cc2c3c(cccc31)C(=O)N([C@H]1CN3CCC1CC3)C2
Ki [1]: 0.9 nM

O=C1c2cccc3c2c(nn3Cc2ccccc2)CN1[C@H]1CN2CCC1CC2
Ki [1]: 7.1 nM

O=C(N[C@H]1CN2CCC1CC2)c1c[nH]c2ccsc2c1=O [PUMOSETRAG]
microsomal CLint [4]: 24 µL/min/mg | IC50 [5]: 9300 nM | EC50 [8]: 5.4 nM | EC50 [9]: 9.2 nM | ED50 [2]: 0.96 mg/kg

Cn1nc2c3c(cccc31)C(=O)N([C@@H]1CN3CCC1CC3)C2
Ki [1]: 0.7 nM

Cn1nc2c3c(cccc31)C(=O)N([C@H]1CN3CCC1CC3)C2
microsomal CLint [4]: 3.8 µL/min/mg | IC50 [5]: < 10000 nM | EC50 [8]: 12.6 nM | EC50 [9]: 6.9 nM | solubility [10]: > 500 µM | IC50 [6]: > 50000 nM | Ki [1]: 1.7 nM | ED50 [2]: 0.25 mg/kg

CCn1nc2c3c(cccc31)C(=O)N([C@H]1CN3CCC1CC3)C2
Ki [1]: 2 nM
